Source: patent US12264173B2 (GILEAD SCIENCES, INC., priority 2020, dated 2025)

Legend:
RSV RNP complexes = target: T1, RSV RNP complexes (Human respiratory syncytial virus A, UniProt P28887); assay: RSV RNP assay (transcription); format: biochemical, RSV A2
T1 construct: The supernatant (S3) fraction, containing the enriched RSV RNP complexes, was collected; endogenous in cells; host or cells: HEp-2 cells infected with RSV A2; detergent-extracted S3 fraction
Procedure: RSV ribonucleoprotein (RNP) complexes were prepared from a method modified from Mason et al. (1). HEp-2 cells were plated at a density of 7.1×10^4 cells/cm^2 in MEM+10% fetal bovine serum (FBS) and allowed to attach overnight at 37° C. (5% CO2). Following attachment, the cells were infected with RSV A2 (MOI=5) in 35 mL MEM+2% FBS. At 20 hours post-infection, the media was replaced with MEM+2% FBS supplemented with 2 μg/mL actinomycin D and returned to 37° C. for one hour. The cells were then washed once with PBS and treated with 35 mL of PBS+250 μg/mL lyso-lecithin for one minute, after which all liquid was aspirated. […] The supernatant (S3) fraction, containing the enriched RSV RNP complexes, was collected and the protein concentration determined by UV absorbance at 280 nm. […]
Transcription reactions contained 25 μg of crude RSV RNP complexes in 30 μL of reaction buffer [50 mM TRIS-acetate (pH 8.0), 120 mM potassium acetate, 5% glycerol, 4.5 mM MgCl2, 3 mM DTT, 2 mM ethyleneglycol-bis(2-aminoethylether)-tetraacetic acid (EGTA), 50 μg/mL BSA, 2.5 U RNasin (Promega), ATP, GTP, UTP, CTP and 1.5 uCi [α-32P] […] The radiolabled nucleotide used in the transcription assay was selected to match the nucleotide analog being evaluated for inhibition of RSV RNP transcription. […]

DENV2 NS5 = DENV2 NS5 (Dengue virus type 2, UniProt P14340); assay: DENV Pol IC50 (DENV2-NS5 polymerase assay); format: biochemical; conditions: nucleotide triphosphate
Procedure: A 244 nucleotide secondary structureless heteropolymeric RNA (sshRNA) with sequence 5′-(UCAG)20(UCCAAG)14(UCAG)20-3′ (SEQ ID NO: 1) is used as the template with 5′-CUG-3′ primer in the DENV2-NS5 polymerase assay. Six two-fold dilutions of compounds starting from 200 nM and no inhibitor control are plated in 96-well plates. 100 nM DENV2 NS5 is preincubated for 5 minutes at room temperature in a reaction mixture containing 40 mM Tris-HCl (pH 7.5), 10 mM NaCl, 3 mM DTT, 0.2 unit/μL RNasin Plus RNase Inhibitor, 200 ng/μL sshRNA, 20 μM CUG and 2 mM MgCl2. Enzyme mix is added to compound dilutions and reactions initiated by the addition of a mixture containing 20 μM of three natural NTP plus 2 μM of analog:base matched competing natural NTP containing 1:100 α-33P-NTP. After 90 minutes at 30° C., 5 μL of the reaction mixtures are spotted on DE81 anion exchange paper. Filter papers are washed three times with Na2HPO4 (125 mM, pH 9) for 5 minutes, rinsed with water and ethanol, then air-dried and exposed to phosphorimager. Synthesized RNA is quantified using Typhoon Trio Imager and Image Quant TL Software and reaction rates are calculated by linear regression using GraphPad Prism 5.0. IC50 values are calculated in Prism by non-linear regression analysis using the dose-response (variable slope) equation (four-parameter logistic equation): Y=Bottom+(Top-Bottom)/(1+10^((Log IC50−X)*HillSlope)).

POLRMT [1] = target: T2, POLRMT (Homo sapiens, UniProt O00411); assay: Single nucleotide incorporation by human mitochondrial RNA polymerase (POLRMT); format: biochemical; conditions: nucleotide triphosphate
Procedure: A mixture of MTCN buffer (50 mM MES, 25 mM Tris-HCl, 25 mM CAPS, and 50 mM NaCl, pH 7.5), 200 nM 5′^32 P-R12/D18, 10 mM MgCl2, 1 mM DTT, and 376 nM POLRMT was preincubated at 30° C. for 1 min. The reaction was started by addition of 500 μM (final) natural NTP or NTP analogs. At selected time points, the reaction mixture was removed and quenched with gel loading buffer containing 100 mM EDTA, 80% formamide, and bromophenol blue, and heated at 65° C. for 5 min. The samples were run on a 20% polyacrylamide gel (8 M urea), and the product formation was quantified using Typhoon Trio Imager and Image Quant TL Software (GE Healthcare, Piscataway, NJ). The rate of single nucleotide incorporation by mt RNA pol was calculated by fitting the product formation using the single exponential equation: [1R13]=A(1−e^−kt), where [1R13] represents the amount (in nM) of the elongated product formed, t represents the reaction time, k represents the observed rate, and A represents the amplitude of the exponential.

POLRMT [2] = target: T2, POLRMT; assay: Inhibition of human mitochondrial RNA polymerase (POLRMT); format: biochemical; conditions: nucleotide triphosphate
Procedure: All reaction mixtures contained 50 mM Tris-HCl buffer (pH 8.0), 0.2 mg/ml BSA, 2 mM DTT, 0.05 mg/ml activated fish sperm DNA, 10 mM MgCl2, 1.3 μCi [α-^33P]dTTP (3,000 Ci/mmol), and 2 μMeach of dATP, dGTP, and TTP. The optimal enzyme concentrations were chosen to be in the linear range of enzyme concentration ([E]) versus activity, and the reaction time was selected to ensure that 10% of the substrate was consumed. All reactions were run at 37° C. […] The reactions were heated to 32° C. and initiated by adding 2.5 μM each of the four natural NTPs and 1.5 μCi of [^33P]GTP. After incubation for 30 min at 32° C., the reactions were spotted on DE81 paper before being processed for quantification.

T2 sequence (O00411 42-1230): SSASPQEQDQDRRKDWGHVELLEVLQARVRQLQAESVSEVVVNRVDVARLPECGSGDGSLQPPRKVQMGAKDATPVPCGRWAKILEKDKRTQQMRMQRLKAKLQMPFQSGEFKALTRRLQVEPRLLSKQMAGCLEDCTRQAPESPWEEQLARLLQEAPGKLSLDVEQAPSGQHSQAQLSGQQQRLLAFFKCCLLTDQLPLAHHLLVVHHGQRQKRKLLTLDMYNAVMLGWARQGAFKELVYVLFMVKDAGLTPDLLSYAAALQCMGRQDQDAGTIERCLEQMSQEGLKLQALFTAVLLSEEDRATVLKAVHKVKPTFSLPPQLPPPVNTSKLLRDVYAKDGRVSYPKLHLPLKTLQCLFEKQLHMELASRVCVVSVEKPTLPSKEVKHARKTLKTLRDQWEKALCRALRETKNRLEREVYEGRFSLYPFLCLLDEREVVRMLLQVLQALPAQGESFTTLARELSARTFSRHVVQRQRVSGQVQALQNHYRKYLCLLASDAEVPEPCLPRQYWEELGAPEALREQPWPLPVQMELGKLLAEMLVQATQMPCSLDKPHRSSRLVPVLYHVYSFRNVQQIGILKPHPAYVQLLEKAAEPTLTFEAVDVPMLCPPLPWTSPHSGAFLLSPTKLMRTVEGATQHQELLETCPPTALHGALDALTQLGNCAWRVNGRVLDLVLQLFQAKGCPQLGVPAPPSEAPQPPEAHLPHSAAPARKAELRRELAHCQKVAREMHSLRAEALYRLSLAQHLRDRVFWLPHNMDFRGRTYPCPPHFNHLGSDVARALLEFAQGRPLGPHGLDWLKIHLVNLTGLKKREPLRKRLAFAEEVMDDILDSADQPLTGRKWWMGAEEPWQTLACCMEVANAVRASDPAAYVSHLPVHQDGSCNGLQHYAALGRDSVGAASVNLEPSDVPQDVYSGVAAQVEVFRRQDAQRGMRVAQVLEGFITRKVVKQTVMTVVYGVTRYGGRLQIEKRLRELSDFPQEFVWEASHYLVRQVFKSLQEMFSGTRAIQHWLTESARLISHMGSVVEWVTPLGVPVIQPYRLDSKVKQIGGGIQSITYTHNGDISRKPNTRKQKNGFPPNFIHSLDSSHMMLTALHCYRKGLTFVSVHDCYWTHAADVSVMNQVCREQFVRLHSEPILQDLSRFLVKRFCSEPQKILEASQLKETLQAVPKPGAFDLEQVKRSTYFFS
T1 sequence (P03421 whole entry): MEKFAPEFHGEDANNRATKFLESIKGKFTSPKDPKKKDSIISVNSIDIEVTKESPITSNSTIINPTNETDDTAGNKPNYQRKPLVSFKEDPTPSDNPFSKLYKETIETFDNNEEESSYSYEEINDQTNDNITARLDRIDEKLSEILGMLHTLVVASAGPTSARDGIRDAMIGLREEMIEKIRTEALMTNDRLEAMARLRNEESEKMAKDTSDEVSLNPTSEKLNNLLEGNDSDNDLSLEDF
T1 sequence (P28887 whole entry): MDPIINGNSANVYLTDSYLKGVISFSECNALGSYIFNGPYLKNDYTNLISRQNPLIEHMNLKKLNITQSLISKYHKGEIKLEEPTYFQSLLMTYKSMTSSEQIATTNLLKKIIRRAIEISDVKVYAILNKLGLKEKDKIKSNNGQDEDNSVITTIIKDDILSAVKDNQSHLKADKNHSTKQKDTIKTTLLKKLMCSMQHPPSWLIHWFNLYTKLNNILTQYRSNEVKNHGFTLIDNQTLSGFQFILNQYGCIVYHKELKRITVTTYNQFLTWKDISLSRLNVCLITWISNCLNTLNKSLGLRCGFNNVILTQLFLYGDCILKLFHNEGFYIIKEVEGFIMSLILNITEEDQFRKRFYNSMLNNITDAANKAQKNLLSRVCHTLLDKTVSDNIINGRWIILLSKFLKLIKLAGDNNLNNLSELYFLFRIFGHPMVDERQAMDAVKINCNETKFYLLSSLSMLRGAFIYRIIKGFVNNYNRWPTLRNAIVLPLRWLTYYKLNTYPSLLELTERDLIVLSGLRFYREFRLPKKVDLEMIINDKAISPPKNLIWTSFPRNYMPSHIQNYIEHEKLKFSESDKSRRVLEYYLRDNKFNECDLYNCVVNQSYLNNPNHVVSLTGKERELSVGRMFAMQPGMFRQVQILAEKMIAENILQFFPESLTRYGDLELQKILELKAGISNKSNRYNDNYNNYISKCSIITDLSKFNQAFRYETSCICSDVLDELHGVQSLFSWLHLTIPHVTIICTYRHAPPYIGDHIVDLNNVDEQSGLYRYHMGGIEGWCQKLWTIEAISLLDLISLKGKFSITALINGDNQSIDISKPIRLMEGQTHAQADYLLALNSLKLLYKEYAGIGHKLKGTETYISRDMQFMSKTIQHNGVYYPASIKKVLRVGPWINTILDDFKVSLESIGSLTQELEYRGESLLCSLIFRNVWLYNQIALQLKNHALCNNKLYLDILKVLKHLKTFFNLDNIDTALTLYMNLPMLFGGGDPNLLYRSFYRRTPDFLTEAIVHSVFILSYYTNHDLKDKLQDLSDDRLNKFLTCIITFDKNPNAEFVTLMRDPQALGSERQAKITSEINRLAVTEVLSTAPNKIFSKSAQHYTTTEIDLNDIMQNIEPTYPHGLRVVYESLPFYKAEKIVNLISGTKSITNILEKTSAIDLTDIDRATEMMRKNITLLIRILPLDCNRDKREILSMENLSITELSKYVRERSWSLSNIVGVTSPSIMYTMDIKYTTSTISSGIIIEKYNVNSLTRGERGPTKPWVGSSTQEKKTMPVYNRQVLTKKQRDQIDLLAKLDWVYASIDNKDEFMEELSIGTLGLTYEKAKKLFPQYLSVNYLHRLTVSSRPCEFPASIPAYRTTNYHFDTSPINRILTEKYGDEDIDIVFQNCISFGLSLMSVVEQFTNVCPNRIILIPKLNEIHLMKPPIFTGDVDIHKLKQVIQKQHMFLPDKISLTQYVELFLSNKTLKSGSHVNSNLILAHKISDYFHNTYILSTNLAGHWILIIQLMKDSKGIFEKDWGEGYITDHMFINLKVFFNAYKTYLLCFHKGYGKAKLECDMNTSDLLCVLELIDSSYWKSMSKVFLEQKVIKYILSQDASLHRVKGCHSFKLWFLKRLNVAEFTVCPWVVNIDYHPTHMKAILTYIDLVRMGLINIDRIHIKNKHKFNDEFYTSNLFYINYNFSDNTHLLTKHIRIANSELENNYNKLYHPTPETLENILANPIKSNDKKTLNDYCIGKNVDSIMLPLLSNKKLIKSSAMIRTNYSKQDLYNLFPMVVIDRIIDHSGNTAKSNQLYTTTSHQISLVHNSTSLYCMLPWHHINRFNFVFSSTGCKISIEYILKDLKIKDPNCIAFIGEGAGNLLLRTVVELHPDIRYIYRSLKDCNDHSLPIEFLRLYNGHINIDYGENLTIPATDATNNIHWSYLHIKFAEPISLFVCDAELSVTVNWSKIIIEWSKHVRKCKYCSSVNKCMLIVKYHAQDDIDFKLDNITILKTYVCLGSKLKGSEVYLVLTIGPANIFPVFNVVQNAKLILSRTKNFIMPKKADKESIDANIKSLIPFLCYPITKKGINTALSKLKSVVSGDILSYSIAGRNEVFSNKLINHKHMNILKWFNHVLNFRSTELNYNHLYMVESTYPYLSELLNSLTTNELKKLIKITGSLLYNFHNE

SMILES | IC50 (RSV RNP complexes) [nM] | IC50 (DENV2 NS5) [nM] | POLRMT SNI % (POLRMT [1]) [%] | IC50 (POLRMT [2]) [nM]
Nc1ncnn2c([C@@H]3O[C@](CCl)(COP(=O)(O)OP(=O)(O)OP(=O)(O)O)[C@@H](O)[C@H]3O)ccc12 [—CH2Cl] | 1100 | 7100 | 0.11 | 
N#C[C@]1(COP(=O)(O)OP(=O)(O)OP(=O)(O)O)O[C@@H](c2ccc3c(N)ncnn23)[C@H](O)[C@@H]1O [—CN] | 44 | 830 | 0.6 | > 200000
[N-]=[N+]=N[C@]1(COP(=O)(O)OP(=O)(O)OP(=O)(O)O)O[C@@H](c2ccc3c(N)ncnn23)[C@H](O)[C@@H]1O [—N3] |  | 140 | 132 | 900
